In US12090225B2 (Avalyn Pharma Inc., priority 2018, dated 2024):
Like-named read-outs stand apart in the source and are kept apart here.

Key:
[1] = Apparent solubility of nintedanib HBr laboratory scale batches; type: physicochemical
Description: During this process, a new polymorphic form was identified (pattern X)

[2] = Inhaled pharmacokinetics of fixed combination nintedanib esylate and pirfenidone; type: in vivo, C57BL/6 mice; conditions: 10.0 mg/kg each IT; for half-life: read-out: Elimination half-life (alpha-phase)
Experimental: Plasma and lung tissue samples were taken 2, 5, 10, 20, 40 min and 1, 2, and 4 hours post dose. Nintedanib was extracted and quantitated as μg/mL plasma and μg/gram lung tissue.

[3] = pH-solubility of nintedanib HBr Pattern 4 and Pattern X; type: physicochemical; conditions: distilled water, over 48 hours, UV/vis 390 nm, unit assumed
Experimental: The solubility of Pattern 4 and Pattern X at various pH values were determined by UV/vis spectrophotometry. Excess Pattern 4 and Pattern X HBr salts were added to distilled water, vortexed at high speed and the pH was adjusted to the target value by adding 1N HCl or 1N NaOH. The test solutions were mixed on a magnetic stirrer for over 48 hours, then filtered through a 0.22 μm nylon membrane syringe filter and analyzed by uv/vis spectrophotometry at 390 nm. […] The solubility of both polymorphic forms decreases with increasing pH. Both polymorphic forms have similar solubility profile.

[4] = Temperature-solubility of nintedanib HBr Pattern 4 and Pattern X; type: physicochemical; conditions: distilled water, over 48 hours
Experimental: During this time period, the samples were periodically taken out of the storage, vortexed, and returned to storage condition. At the end of the incubation period, the test solutions were filtered through a 0.22 μm nylon membrane syringe filter and analyzed by uv/vis spectrophotometry (at 390 nm) for drug concentration. Table 29 summarizes the solubility of both salt forms as a function of temperature. The solubility of both polymorphic forms increases with increasing temperature. Both polymorphic forms have similar solubility profiles.

[5] = Inhaled pharmacokinetics of nintedanib salt forms (intratracheal); type: in vivo, C57BL/6 mice; conditions: C57BL/6 mice; for AUC 0-last / Elimination half-life (alpha-phase): 1.0 mg/kg IT
[6] = Pattern stability screen of potential salts (40° C./75% RH, XRPD); type: physicochemical
[7] = Human inhaled dose projection vs Ofev 150 mg oral; conditions: 0.42 mg inhaled vs Ofev 150 mg oral
[8] = female, C57BL/6, mouse, inhaled or intranasal, Lung (whole lung homogenate)
[9] = female, C57BL/6, mouse, inhaled or intranasal, Plasma

In the case of `Br.COC(=O)c1ccc2c(c1)NC(=O)/C2=C(\Nc1ccc(N(C)C(=O)CN2CCN(C)CC2)cc1)c1ccccc1` [AP143], the “Apparent Solubility” value [1] is reported as 0.96 mg/mL.
With `Cc1ccc(=O)n(-c2ccccc2)c1` [Pirfenidone] the “AUC 0-last” value ([2]; Lung (whole lung homogenate)) was 5.2 mg·h/kg, the Cmax [2, 8] was 279000 ng/g and the half-life [2, 8] was 0.7 min. It also gave an AUC(0-t) [2, 9] of 3.8 µg·h/mL, a Cmax [2, 9] of 7.9 µg/mL and a half-life [2, 9] of 8.9 min.
Molecule `Br.COC(=O)c1ccc2c(c1)NC(=O)/C2=C(\Nc1ccc(N(C)C(=O)CN2CCN(C)CC2)cc1)c1ccccc1` [Nintedanib HBr Pattern X, Nintedanib hydrobromide, XRPD Pattern X] has a solubility ([3]; pH 3.1) of 1.86 mg/mL, a solubility ([3]; pH 3.9) of 1.72 mg/mL and a solubility ([3]; pH 4.4) of 1.49 mg/mL. The solubility ([3]; pH 5.1) was 1.4 mg/mL, the “Nintedanib HBr Solubility” value ([4]; 5° C.) was 0.65 mg/mL and the “Nintedanib HBr Solubility” value ([4]; 22° C.) was 1.49 mg/mL. The “Nintedanib HBr Solubility” value ([4]; 40° C.) was 3.41 mg/mL.
With `Br.COC(=O)c1ccc2c(c1)NC(=O)C2=C(Nc1ccc(N(C)C(=O)CN2CCN(C)CC2)cc1)c1ccccc1` [AP177d] the “Apparent Solubility” value [1] was 2.05 mg/mL.
For `Br.COC(=O)c1ccc2c(c1)NC(=O)/C2=C(\Nc1ccc(N(C)C(=O)CN2CCN(C)CC2)cc1)c1ccccc1` [Nintedanib bromide], the “AUC 0-last” value ([5]; lung (whole lung homogenate)) was 51.2 mg·h/kg, the “Elimination half-life (alpha-phase)” value ([5]; lung (whole lung homogenate)) was 4.1 min and the Cmax ([5]; plasma, 1.0 mg/kg IT (base equivalent)) was 0.2 µg/mL. For the same molecule, the “AUC 0-last” value ([5]; plasma) was 0.2 µg·h/mL and the “Elimination half-life (alpha-phase)” value ([5]; plasma) was 2.4 min.
With `O=S(=O)(O)O` [Sulfuric acid] the “XRPD pattern after 72 hrs 40° C./75% RH” value ([6]; Initial pattern 1) was 1, the “XRPD pattern after 72 hrs 40° C./75% RH” value ([6]; Initial pattern 2) was 1 and the “XRPD pattern after 72 hrs 40° C./75% RH” value ([6]; Initial pattern 3) was 3. For the same molecule, the “XRPD pattern after 72 hrs 40° C./75% RH” value ([6]; Initial pattern 4) was 3.
With `COC(=O)c1ccc2c(c1)NC(=O)/C2=C(\Nc1ccc(N(C)C(=O)CN2CCN(C)CC2)cc1)c1ccccc1.O=S(=O)(O)CCO` [HESA] the “XRPD pattern after 72 hrs 40° C./75% RH” value ([6]; Initial pattern 1) was 2 and the “XRPD pattern after 72 hrs 40° C./75% RH” value ([6]; Initial pattern 2) was 2.
With `Br.COC(=O)c1ccc2c(c1)NC(=O)C2=C(Nc1ccc(N(C)C(=O)CN2CCN(C)CC2)cc1)c1ccccc1` [AP018] the “Apparent Solubility” value [1] was 2.04 mg/mL.
With `Br.COC(=O)c1ccc2c(c1)NC(=O)C2=C(Nc1ccc(N(C)C(=O)CN2CCN(C)CC2)cc1)c1ccccc1` [AP177w] the “Apparent Solubility” value [1] was 1.03 mg/mL.
With `COC(=O)c1ccc2c(c1)NC(=O)/C2=C(\Nc1ccc(N(C)C(=O)CN2CCN(C)CC2)cc1)c1ccccc1` [Inhaled nintedanib] the “% Pharmacokinetics (inhaled compared to oral), AUC” value ([7]; lung) was 1047%, the “% Pharmacokinetics (inhaled compared to oral), Cmax” value ([7]; lung) was 2600% and the “% Pharmacokinetics (inhaled compared to oral), AUC” value ([7]; plasma) was 100%. For the same molecule, the “% Pharmacokinetics (inhaled compared to oral), Cmax” value ([7]; plasma) was 83%.
For Maleic acid, the “XRPD pattern after 72 hrs 40° C./75% RH” value ([6]; Initial pattern 1) was 1 and the “XRPD pattern after 72 hrs 40° C./75% RH” value ([6]; Initial pattern 2) was 2.
With `COC(=O)c1ccc2c(c1)NC(=O)/C2=C(\Nc1ccc(N(C)C(=O)CN2CCN(C)CC2)cc1)c1ccccc1.CS(=O)(=O)O` [MSA] the “XRPD pattern after 72 hrs 40° C./75% RH” value ([6]; Initial pattern 1) was 1 and the “XRPD pattern after 72 hrs 40° C./75% RH” value ([6]; Initial pattern 2) was 1.
In the case of `N[C@@H](CC(=O)O)C(=O)O` [L-Aspartic acid], the “XRPD pattern after 72 hrs 40° C./75% RH” value ([6]; Initial pattern 1) is reported as 1.
